Reference: patent US6358948B1 (American Home Products Corporation, priority 1999, dated 2002)
Values joined by “and” are separate entries in the source; they are usually repeats but may differ in a detail not shown here. Equal values may be shown once.

Test system: rat uterine decidualization
Experiment: Rat decidualization assay
Assay type: in vivo
Conditions: p.o.; half-maximal decrease in EC50 progesterone induced decidual response, rats

With CC#C[C@]1(O)CC[C@H]2[C@@H]3CCC4=CC(=O)CCC4=C3[C@@H](c3ccc(N(C)C)cc3)C[C@@]21C [RU 486] the IC50 was 0.21 mg/kg and 0.14 mg/kg.

Same assay, conditions: s.c.; half-maximal increase in decidual response (uterine wet weight), ovariectomized rats; individual studies

In the case of C#C[C@]1(O)CC[C@H]2[C@@H]3CCC4=CC(=O)CC[C@@H]4[C@H]3CC[C@@]21CC [Levonorgestrel], the EC50 is reported as 0.08 mg/kg and 0.12 mg/kg and 0.09 mg/kg (2×).
With C#C[C@]1(O)CC[C@H]2[C@@H]3CCC4=CC(=O)CC[C@@H]4[C@H]3C(=C)C[C@@]21CC [3-Ketodesogestrel] the EC50 was 0.10 mg/kg and 0.06 mg/kg and 0.11 mg/kg.

Biological target: T1, human PR (Homo sapiens, UniProt P06401)
T1 construct: expressed in transfected cells; host or cells: CV-1 cells (electroporated with pLEM-hPR-B and pGL3-2xPRE-luciferase)
T1 sequence (P06401 1-933): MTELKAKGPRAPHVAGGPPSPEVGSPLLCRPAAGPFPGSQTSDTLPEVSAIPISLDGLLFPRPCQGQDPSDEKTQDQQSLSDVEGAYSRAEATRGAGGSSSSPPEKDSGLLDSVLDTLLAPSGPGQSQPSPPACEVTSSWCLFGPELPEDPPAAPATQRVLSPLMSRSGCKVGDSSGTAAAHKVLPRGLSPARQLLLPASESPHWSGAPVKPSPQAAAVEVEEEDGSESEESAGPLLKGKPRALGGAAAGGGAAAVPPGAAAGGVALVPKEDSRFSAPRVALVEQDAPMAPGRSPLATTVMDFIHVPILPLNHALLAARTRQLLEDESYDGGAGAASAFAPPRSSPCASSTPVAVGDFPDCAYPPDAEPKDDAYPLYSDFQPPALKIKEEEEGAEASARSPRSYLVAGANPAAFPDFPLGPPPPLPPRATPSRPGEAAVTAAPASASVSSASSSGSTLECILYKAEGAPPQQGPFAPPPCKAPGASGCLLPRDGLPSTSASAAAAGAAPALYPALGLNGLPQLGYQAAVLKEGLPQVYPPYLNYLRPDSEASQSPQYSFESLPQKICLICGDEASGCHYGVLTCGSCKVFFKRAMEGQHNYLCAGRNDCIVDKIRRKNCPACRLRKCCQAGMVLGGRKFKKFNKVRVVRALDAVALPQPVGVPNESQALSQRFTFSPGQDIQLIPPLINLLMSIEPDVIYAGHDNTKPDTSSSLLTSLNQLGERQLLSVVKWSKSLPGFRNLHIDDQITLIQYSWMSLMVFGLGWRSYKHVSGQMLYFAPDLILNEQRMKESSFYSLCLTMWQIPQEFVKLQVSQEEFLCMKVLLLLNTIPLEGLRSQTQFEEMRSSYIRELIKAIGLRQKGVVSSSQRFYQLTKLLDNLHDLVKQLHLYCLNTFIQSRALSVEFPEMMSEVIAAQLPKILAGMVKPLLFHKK
Experiment: PRE-luciferase assay in CV-1 cells
Assay type: cell-based
Conditions: CV-1 cells co-transfected with human PR and PRE-luciferase; decrease in 3 nM progesterone induced PRE-luciferase activity; read-out: hPR CV-1 IC50

CC1OC(C)(C)Nc2ccc(-c3cccc([N+](=O)[O-])c3)cc21 (stereo not drawn) [Compound 3, 6-(3-Nitro-phenyl)-2,2,4,-trimethyl-1,4-dihydro-2H-benzo[d][1,3]oxazine] showed an IC50 of 1680 nM.

Same assay, conditions: read-out: hPR CV-1 IC50

In the case of CC1(C)OC(C)(C(F)(F)F)Nc2ccc(-c3cccc(Cl)c3)cc21 (stereo not drawn) [Compound 2, 6-(3-Chloro-phenyl)-2,4,4-trimethyl-2-trifluoromethyl-1,4-dihydro-2H-benzo[d][1,3]oxazine], the IC50 is reported as 50 nM.

Test system: not given
Experiment: not given
Conditions: not given

First: CC1Nc2ccc(-c3coc(C#N)c3)cc2C(C)(C)O1 (stereo not drawn) [Example 31, 4-(2,4,4-Trimethyl-1,4-dihydro-2H-3,1-benzoxazin-6-yl)2-furonitrile]
Second: CC1Nc2ccc(-c3csc(C#N)c3)cc2C(C)(C)O1 (stereo not drawn) [Example 15, 4-(2,4,4-Trimethyl-1,4-dihydro-2H-3,1-benzoxazin-6-yl)thiophene-2carbonitrile]
The melting point of the first is lower: 116 to 118 °C for the first, 175 to 176 °C for the second.

Compared with CC1(C)CC(=O)Nc2ccc(-c3cccc(Cl)c3)cc21 [Example 11, 6-(3-Chloro-phenyl)-4,4-dimethyl-3,4-dihydro-1H-quinolin-2-one], CC1(C)CC(=O)Nc2ccc(-c3cccc(F)c3)cc21 [Example 40, 6-(3-Fluorophenyl)-4,4-dimethyl-3,4-dihydroquinolin-2(1H)one] is lower in melting point: 211 to 215 °C for the first, 190 to 192 °C for the second.

First: CC1Nc2ccc(-c3ccc(C#N)[nH]3)cc2C(C)(C)O1 (stereo not drawn) [Example 20, 5-(2,4,4-Trimethyl-1,4-dihydro-2H-3,1-benzoxazin-6-yl)-1H-pyrrole-2-carbonitrile]
Second: CC1Nc2ccc(-c3ccc(C#N)n3C)cc2C(C)(C)O1 (stereo not drawn) [Example 22, 1-Methyl-5-(2,4,4-trimethyl-1,4-dihydro-2H-3,1-benzoxazin-6-yl)-1H-pyrrole-2-carbonitrile]
The melting point of the first is higher: 201 to 202 °C for the first, 195 to 196 °C for the second.

First: Cc1cc(C#N)sc1-c1ccc2c(c1)C(C)(C)OC(C(F)(F)F)N2 (stereo not drawn) [Example 38, 5-[4,4-Dimethyl-2-(trifluoromethyl)-1,4-dihydro-2H-3,1-benzoxazin-6-yl]-4-methylthiophene-2-carbonitrile]
Second: Cc1cc(C#N)sc1-c1ccc2c(c1)C(C)(C)OC(C)N2 (stereo not drawn) [Example 16, 4Methyl-5-(2,4,4-trimethyl-1,4-dihydro-2H-3,1-benzoxazin-6-yl)thiophene-2-carbonitrile]
The melting point of the first is lower: 97 to 98 °C for the first, 145 to 146 °C for the second.

Compared with CC1(C)OC(C(F)(F)F)Nc2ccc(-c3cc(F)cc(C#N)c3)cc21 (stereo not drawn) [Example 32, 3-[4,4-Dimethyl-2-(trifluoromethyl)-1,4-dihydro-2H-3,1-benzoxazin-6-yl]-5-fluorobenzonitrile], CC1Nc2ccc(-c3cc(F)cc(C#N)c3)cc2C(C)(C)O1 (stereo not drawn) [Example 14, 3-Fluoro-5-(2,4,4-trimethyl-1,4-dihydro-2H-3,1-benzoxazin-6-yl)benzonitrile] is higher in melting point: 102 to 103 °C for the first, 163 to 164 °C for the second.

First: CC1(C2CC2)NC(=O)Nc2ccc(-c3cccc(Cl)c3)cc21 (stereo not drawn) [Example 9, 6-(3-Chlorophenyl)-4-cyclopropyl-4-methyl-3,4-dihydro-1H-quinazolin-2-one]
Second: CN1C(=O)Nc2ccc(-c3cccc(Cl)c3)cc2C1(C)C1CC1 (stereo not drawn) [Example 10, 6-(3-Chlorophenyl)-4-cyclopropyl-3,4-dimethyl-3,4-dihydro-1H-quinazolin-2-one]
The melting point of the first is lower: 125 to 127 °C for the first, 193 to 194 °C for the second.

First: CC1(C)CC(=S)Nc2ccc(-c3cccc(Cl)c3)cc21 [Example 43, 6-(3-Chlorophenyl)-4,4-dimethyl-3,4dihydroquinoline-2(1H)-thione]
Second: CC1(C)CC(=S)Nc2ccc(-c3cccc(F)c3)cc21 [Example 44, 6-(3-Fluorophenyl)-4,4-dimethyl-3,4-dihydroquinoline-2(1H)-thione]
The melting point of the first is lower: 197 to 198 °C for the first, 209 to 211 °C for the second.

First: C[C@@H]1Nc2ccc(-c3cc(F)cc(C#N)c3)cc2[C@](C)(c2ccccc2)O1 [Example 17, 3-[(2R,4S)-2,4-Dimethyl-4-phenyl-1,4-dihydro-2H-3,1-benzoxazin-6yl]-5-fluorobenzonitrile]
Second: CC1Nc2ccc(-c3cccc(F)c3)cc2C(C)(C)O1 (stereo not drawn) [Example 27, 6-(3-Fluorophenyl)-2,4,4-trimethyl-1,4-dihydro-2H-3,1-benzoxazine]
The melting point of the first is lower: 128 to 129 °C for the first, 139 to 140 °C for the second.

First: CC1OC(C)(C)c2cc(-c3ccc(C#N)n3C(=O)OC(C)(C)C)ccc2N1C(=O)OCC1c2ccccc2-c2ccccc21 (stereo not drawn) [Example 19, 9H-Fluoren-9-ylmethyl-6-[1-(tert-butoxycarbonyl)-5-cyano-1H-pyrrol-2-yl]-2,4,4-trimethyl-2H-3,1-benzoxazine-1(4H)-carboxylate]
Second: CC1OC(C)(C)c2cc(-c3ccc(C#N)n3C)ccc2N1C(=O)OCC1c2ccccc2-c2ccccc21 (stereo not drawn) [Example 21, 9H-Fluoren-9-ylmethyl 6-(5-cyano-1-methyl-1H-pyrrol-2-yl)-2,4,4-trimethyl-2H-3,1-benzoxazine-1(4H)-carboxylate]
The melting point of the first is higher: 135 to 136 °C for the first, 63 to 64 °C for the second.

First: CC1Nc2ccc(-c3ccc(F)c(Cl)c3)cc2C(C)(C)O1 (stereo not drawn) [Example 29, 6-(3-Chloro-4-fluorophenyl)-2,4,4-trimethyl-1,4-dihydro-2H-3,1-benzoxazine]
Second: CC1Nc2ccc(-c3ccc(F)c(C#N)c3)cc2C(C)(C)O1 (stereo not drawn) [Example 30, 2-Fluoro-5-(2,4,4-trimethyl-1,4-dihydro-2H-3,1-benzoxazin-6-yl)benzonitrile]
The melting point of the first is lower: 173 to 175 °C for the first, 184 to 186 °C for the second.

First: CC1(C)CC(=O)Nc2ccc(-c3cc(F)cc(C#N)c3)cc21 [Example 41, 3-(4,4-Dimethyl-2-oxo-1,2,3,4-tetrahydroquinolin-6-yl)-5-fluorobenzonitrile]
Second: CC1Nc2ccc(-c3cccc(Cl)c3)cc2C(C)(C)O1 (stereo not drawn) [Example 28, 6-(3-Chlorophenyl)-2,4,4-trimethyl-1,4-dihydro-2H-3,1-benzoxazine]
The melting point of the first is higher: 249 to 250 °C for the first, 144 to 146 °C for the second.

Compared with CC1Nc2ccc(-c3csc(C#N)c3)cc2C2(CCCCC2)O1 (stereo not drawn) [Example 26, 4-(2-Methylspiro[2H-3,1-benzoxazine-4,1′-cyclohexane]-6-yl)2-thiophenecarbonitrile], CC1(C)OC(C(F)(F)F)Nc2ccc(-c3cccc(Cl)c3)cc21 (stereo not drawn) [Example 39, 6-(3-Chlorophenyl)-4,4-dimethyl-2-(trifluoromethyl)-1,4-dihydro-2H-3,1-benzoxazine] is lower in melting point: 111 to 112 °C for the first, 108 to 109 °C for the second.

For CC1(C)CC(=S)Nc2ccc(-c3cc(F)cc(C#N)c3)cc21 [Example 46, 3-(4,4-Dimethyl-2-thioxo-1,2,3,4-tetrahydroquinolin-6-yl)-5-fluorobenzonitrile], the melting point was 240 to 242 °C (dec.).
